Measurements published in patent US11712439B2, “Methods and materials for identifying and treating bet inhibitor-resistant cancers” (Mayo Foundation for Medical Education and Research, priority 2017, dated 2023).
Where a SMILES comes first, the peptide text is derived from it. The star is where a group is joined. Cbz = O=C(OCc1ccccc1)*

Columns and labels:
BRD2/3/4 = assay: Western blot and RT-qPCR of BRD2/3/4 in inhibitor-treated LNCaP cells; format: cell-based, human; conditions: 8 hours, Bortezomib 200 nM, MG132 20 μM; for BRD2/3/4 protein level: MLN4924 200 nM
Procedure: (§1) Cell lysates or immunoprecipitates were subjected to SDS-PAGE, and proteins were transferred to nitrocellulose membranes (GE Healthcare Sciences). The membranes were blocked in Tris-buffered saline (TBS, pH 7.4) containing 5% non-fat milk and 0.1% Tween-20, washed twice in TBS containing 0.1% Tween-20, and incubated with primary antibody overnight at 4° C., followed by secondary antibody for 1 hour at room temperature. The proteins of interest were visualized using ECL chemiluminescence system (Santa Cruz Biotechnology). Densitometry analysis of protein bands was analyzed on the Gel-Pro Analyzer software.
Total RNA was isolated from transiently transfected cells using the Trizol reagent (Thermo Fisher Scientific), and cDNA was reverse-transcribed using the Superscript RT kit (TOYOBO, Japan) according to the manufacturer's instructions. PCR amplification was performed using the SYBR Green PCR master mix Kit (TOYOBO, Japan). All quantization was normalized to the level of endogenous control GAPDH. The primer sequences for the SYBR green qPCR used were as follows: BRD2-F: 5′-[…]-3′ (SEQ ID NO:10); BRD2-R: 5′-[…]-3′ (SEQ ID NO:11); BRD3-F: 5′-[…]-3′ (SEQ ID NO:12); BRD3-R: 5′-[…]-[…]-3′ (SEQ ID NO:13); BRD4-F: 5′-[…]-GAG-3′ (SEQ ID NO:14); BRD4-F: 5′-[…]-3′ (SEQ ID NO:15); RAC1-F: 5′-[…]-3′ (SEQ ID NO:16); RAC1-R: 5′-[…]-3′ (SEQ ID NO:17); FDFT1-F: 5′-ACTAT-[…]-3′ (SEQ ID NO:18); FDFT1-R: 5′-[…]-[…]-3′ (SEQ ID NO:19); DHCR24-F: 5′-[…]-GAGC-3′ (SEQ ID NO:20); DHCR24-R: 5′-[…]-3′ (SEQ ID NO:21); DHCR7-F: 5′-[…]-3′ (SEQ ID NO:22); DHCR7-R: 5′-[…]-3′ (SEQ ID NO:23); MVD-F: 5′-[…]-3′ (SEQ ID NO:24); MVD-R: 5′-CACAC-[…]-3′ (SEQ ID NO:25); PSA-F: 5′-[…]-[…]-3′ (SEQ ID NO:26); PSA-R: 5′-[…]-3′ (SEQ ID NO:27); TMPRSS2-F: 5′-[…]-3′ (SEQ ID NO:28); TMPRSS2-R: 5′-[…]-3′ (SEQ ID NO:29); MYC-F: 5′-[…]-3′ (SEQ ID NO:30); MYC-R: 5′-CTTGT-[…]-3′ (SEQ ID NO:31); AR-F: 5′-[…]-TCACC-3′ (SEQ ID NO:32); AR-R: 5′-[…]-3′ (SEQ ID NO:33); GAPDH-F: 5′-[…]-3′ (SEQ ID NO:34); and GAPDH-R: 5′-[…]-3′ (SEQ ID NO:35).

AKT-mTORC1 pathway = assay: Western blot of AKT and S6K phosphorylation in C4-2 cells; format: cell-based, human; conditions: SPOP-F133V C4-2 cells, GDC-0068 1 μM, 24 hours
Procedure: as §1

C4-2 xenograft tumors = assay: Prostate cancer xenografts in mice, tumor volume; format: in vivo; conditions: SPOP-F133V C4-2 xenografts, GDC-0068 100 mg/kg with JQ1 50 mg/kg, 5 days a week, day 21
Procedure: 6-week-old NOD-SCID IL-2-receptor gamma null (NSG) mice were generated and randomly divided into different experimental groups as indicated. All mice were housed in standard conditions with a 12-hour light/dark cycle and access to food and water ad libitum. For BRD2/3/4 knockdown studies, C4-2 cells (5×10^6), infected with lentivirus expressing empty vector (EV) or HA-SPOP-F133V mutant in combination with control shRNA or BRD2/3/4-specific shRNA, were mixed with Matrigel (in 100 μL 1×PBS plus 100 μL Matrigel (BD Biosciences)) and injected s.c. into the right flank of mice. […] Growth in tumor volume was measured in a blinded fashion using digital caliper, and tumor volumes were estimated using the formula (L×W2)/2, where L is length of tumor and W is width. The volumes of tumors were compared, and P values were determined by a two-tailed Student's t test. Upon the completion of treatment, tumor grafts were harvested. Tumor tissues were divided, and a portion was subjected to FFPE. the rest was frozen for protein and RNA extraction.

C4-2 cells = assay: Cell proliferation assay (MTS) and trypan blue assay, C4-2 cells; format: cell-based, human; conditions: SPOP-F133V C4-2 cells, GDC-0068 0.2 μM with JQ1 0.25 μM, 5 days
Procedure: CellTiter 96® AQueous One Solution Cell Proliferation Assay (MTS) (Promega) was used to measure cell growth according to the manufacturer's instructions. Briefly, cells were plated in 96-well plates at a density of 2,000 cells per well. At the indicated times, 20 μL of Cell Titer 96R Aqueous One Solution Reagent was added to medium. After incubating for 1 hour at 37° C. in the cell incubator, cell growth was measured in a microplate reader at 490 nm.
Trypan blue assay was performed to measure cell growth according to the manufacturer's instructions. Briefly, cells were plated in 6-well plates at a density of about 5×10^4 to about 1×10^5 cells per well. At the indicated time points, cells were trypsinized and suspended in 1 mL 1×PBS. 100 μL cells and 100 μL trypan blue solution (Sigma-Aldrich) were mixed, and the number of viable cells was measured using the Bio-Rad automated cell counter.

solid tumors = conditions: patients with solid tumors (Saura et al. 2017); cited from earlier work
BRD2/3/4 proteins = assay: Western blot of 293T cells transfected with SPOP and BRD2/3/4, with or without MG132; format: cell-based, human; conditions: 20 μM MG132 for 8 hours
Procedure: as §1

## CC(C)C[C@H](NC(=O)[C@H](Cc1ccccc1)NC(=O)c1cnccn1)B(O)O [Bortezomib]
BRD2/3/4
  BRD2/3/4 mRNA expression: not mRNA expression
  BRD2/3/4 protein level: increased BRD2/3/4 protein

## CC(C)NC[C@@H](C(=O)N1CCN(c2ncnc3c2[C@H](C)C[C@H]3O)CC1)c1ccc(Cl)cc1 [GDC-0068]
AKT-mTORC1 pathway
  SPOP mutation-induced activation of AKT downstream pathways: abolished
C4-2 xenograft tumors
  SPOP mutation-conferred resistance to BET inhibitor, tumors in mice: completely overcame
C4-2 cells
  SPOP mutation-conferred resistance to BET inhibitor, cells in culture: completely overcame
Solid tumors
  Antitumor efficacy in patients: effective antitumor efficacy

## CC(C)C[C@@H](C=O)NC(=O)[C@H](CC(C)C)NC(=O)[C@H](CC(C)C)NC(=O)OCc1ccccc1 [MG132] (Cbz-Leu-Leu-Leu-aldehyde)
BRD2/3/4 proteins
  Effect on the decrease of BRD2/3/4 proteins caused by wild-type SPOP: completely reversed
BRD2/3/4
  BRD2/3/4 mRNA expression: not mRNA expression
  BRD2/3/4 protein level: increased BRD2/3/4 protein

## NS(=O)(=O)OC[C@@H]1C[C@@H](n2ccc3c(N[C@H]4CCc5ccccc54)ncnc32)C[C@@H]1O [MLN4924]
BRD2/3/4
  BRD2/3/4 protein level: caused accumulation of BRD2/3/4 at protein level
